Here are results for two compounds from patent publication US20210379066A1, “COMBINATIONS OF POSITIVE ALLOSTERIC MODULATORS AND NICOTINIC ACETYLCHOLINE RECEPTOR AGONISTS FOR TREATING OCULAR CONDITIONS” (Oyster Point Pharma, Inc., priority 2018, published 2021).

“Also recorded” adds a separate entry of the source. Where two headings read alike, the source gives them in different places.

Type in all cases: cell-based
For assay [1], the target named is T1, human alpha4beta2 nAChRs (Homo sapiens, UniProt P17787+P43681).
T1 construct: expressed in transfected cells; host or cells: Xenopus laevis oocytes (cDNA injection)
T1 sequence (P43681 29-627 limits assumed): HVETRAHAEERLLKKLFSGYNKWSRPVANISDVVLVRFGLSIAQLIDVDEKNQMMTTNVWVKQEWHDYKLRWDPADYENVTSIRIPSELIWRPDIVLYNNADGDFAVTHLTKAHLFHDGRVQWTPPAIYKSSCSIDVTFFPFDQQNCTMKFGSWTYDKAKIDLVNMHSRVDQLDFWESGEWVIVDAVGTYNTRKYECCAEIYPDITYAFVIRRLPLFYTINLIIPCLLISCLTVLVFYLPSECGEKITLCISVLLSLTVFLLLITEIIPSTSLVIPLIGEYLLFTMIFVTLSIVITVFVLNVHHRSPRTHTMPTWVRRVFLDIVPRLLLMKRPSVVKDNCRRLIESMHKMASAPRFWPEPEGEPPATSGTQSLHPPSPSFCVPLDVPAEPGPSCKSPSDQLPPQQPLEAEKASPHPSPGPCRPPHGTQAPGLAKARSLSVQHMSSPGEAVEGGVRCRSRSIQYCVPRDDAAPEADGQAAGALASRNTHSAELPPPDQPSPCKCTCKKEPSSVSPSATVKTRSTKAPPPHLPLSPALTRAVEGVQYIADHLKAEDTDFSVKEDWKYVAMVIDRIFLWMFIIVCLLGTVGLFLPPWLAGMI
T1 sequence (P17787 26-502): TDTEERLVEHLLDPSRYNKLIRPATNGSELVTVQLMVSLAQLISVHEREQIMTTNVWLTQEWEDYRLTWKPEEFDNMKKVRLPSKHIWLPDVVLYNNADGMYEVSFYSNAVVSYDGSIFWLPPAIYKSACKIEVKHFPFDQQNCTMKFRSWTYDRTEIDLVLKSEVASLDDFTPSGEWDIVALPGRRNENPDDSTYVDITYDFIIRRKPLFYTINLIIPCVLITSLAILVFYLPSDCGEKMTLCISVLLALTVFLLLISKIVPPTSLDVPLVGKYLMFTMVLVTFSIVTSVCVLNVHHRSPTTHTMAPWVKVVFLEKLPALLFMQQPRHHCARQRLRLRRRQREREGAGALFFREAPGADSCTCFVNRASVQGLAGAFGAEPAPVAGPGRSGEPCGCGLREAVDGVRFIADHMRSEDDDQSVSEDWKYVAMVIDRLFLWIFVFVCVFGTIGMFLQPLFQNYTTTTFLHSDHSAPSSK
Briefly: Desensitization by sustained (1 hour) agonist exposure and recovery, without and with PAM, Xenopus oocytes (Example 1). As to conditions: no PAM; for desensitization / inhibition of the response by sustained agonist exposure: 1 hour exposure, 1 mM compound 1 hemi-galactarate dihydrate or 300 μM varenicline tartrate; for recovery of the response after wash: after 1 hour agonist exposure, 3 hours wash.

In assay [2] the target is T1, human alpha4beta2 nAChRs. The assay can be described thus: Sustained exposure to 300 μM varenicline tartrate and its recovery (Example 2). As to conditions: 36 minutes wash.
Assay [3] addresses T2, human alpha3beta4 nAChRs (Homo sapiens, UniProt P30926+P32297).
T2 construct: expressed in transfected cells; host or cells: Xenopus laevis oocytes (cDNA injection)
Briefly: Antagonistic activity / desensitization, cumulative exposure in the low concentration range (Example 2). As to conditions: concentrations up to 300 nM.

Assay [4] addresses T3, human nAChR alpha3alpha5beta4 (Homo sapiens, UniProt P30532+P30926+P32297).
T3 construct: expressed in transfected cells; host or cells: Xenopus laevis oocytes (cDNA injection)
The assay can be described thus: Agonist activity, two-electrode voltage clamp in Xenopus oocytes (Examples 2 and 5). The conditions noted are these: for EC50: Example 2; for agonist character: versus ACh response. How it is done:
(§1) All experiments were carried out at human nAChRs expressed in Xenopus oocytes using the method of cDNA expression. Xenopus oocytes were prepared and injected using standard procedures.
(§2) Briefly, ovaries were harvested from Xenopus Laevis females that have been deeply anesthetized by cooling at 4° C. and Tricaine methanesulfonate (MS-222 at a concentration of 150 mg/L) in sodium bicarbonate (300 mg/L). Once anesthetized the animal was decapitated and pithed following the rules of animal rights from the Geneva canton. A small piece of ovary was isolated for immediate preparation while the remaining part was placed at 4° C. in a sterile Barth solution containing in mM NaCl 88, KCl 1, NaHCO32.4, HEPES 10, MgSO4.7H2O 0.82, Ca(NO3)2.4H2O 0.33, CaCl2.6H2O 0.41, at pH 7.4, and supplemented with 20 μg/ml of kanamycin, 100 unit/ml penicillin. All recordings were performed at 18° C. and cells superfused with OR2 medium containing in mM: NaCl 88, KCl 2.5, HEPES 5, CaCl2.2H2O 1.8, MgCl2.6H2O 1, pH 7.4.
(§3) Currents evoked by ACh or other agonists were recorded using an automated process equipped with standard two-electrode voltage-clamp configuration (TEVC). Data were captured and analyzed using a HiQScreen proprietary data acquisition and analysis software running under Matlab (Mathworks Inc.).
(§4) See Example 1. […] The test concentration of acetylcholine chloride was 1280 micromolar.
(§5) Injections of cDNAs encoding for the human alpha3beta4, alpha3alpha5beta4, alpha4beta2, and alpha7 were performed in at least 95 oocytes were performed using a proprietary automated injection and receptor expression examined at least two days later. Oocytes were poked with two electrodes and their membrane potential maintained, unless indicated, at −80 mV throughout the experiment.
(§6) A protocol to determine agonistic activity in the oocytes expressing the nAChRs was developed. The cells were exposed to a series of increasing concentrations of a compound agonist for 10 seconds each at two minute intervals. The current evoked from exposure to the agonist at each concentration was recorded. For oocytes expressing alpha7 nAChRs, exposure to the agonist was reduced to 5 seconds. This process was repeated for each agonist tested against each type of nAChR expressing cell.
(§7) To evaluate the agonistic properties of compound 1 hemi-galactarate dihydrate a protocol of brief exposures to a series of growing concentrations of compound 1 hemi-galactarate dihydrate was used.
(§8) Agonist Preparation: See Example 1. […] The test concentration of acetylcholine chloride was 1280 micromolar.
(§9) Experimental Procedures: Injections of cDNAs encoding for the human alpha3beta4, alpha3alpha5beta4, alpha4beta2, alpha4alpha6beta2, and alpha7 were performed in at least 95 oocytes using a proprietary automated injection device. Cellular receptor expression was examined at least two days later. Oocytes were poked with two electrodes and their membrane potential maintained, unless indicated, at −80 mV throughout the experiment.
as §6, with “developed. Oocytes expressing a nAChR subtype were exposed to a brief test pulse of acetylcholine (1280 micromolar) while the holding current and response was evaluated. Cells displaying robust currents were washed for 90 seconds.” for “developed.”, “were then” for “were”, “nAChR” for “compound”, “intervals. The nAChR agonist test concentrations were 0.1, 0.3, 1, 3, 10, 30, 100, 300 (micromolar).” for “intervals.”

In another assay the target is T4, human nAChR alpha3beta4 (Homo sapiens, UniProt P30926+P32297).
T4 construct: expressed in transfected cells; host or cells: Xenopus laevis oocytes (cDNA injection)
T4 sequence (P32297 32-505): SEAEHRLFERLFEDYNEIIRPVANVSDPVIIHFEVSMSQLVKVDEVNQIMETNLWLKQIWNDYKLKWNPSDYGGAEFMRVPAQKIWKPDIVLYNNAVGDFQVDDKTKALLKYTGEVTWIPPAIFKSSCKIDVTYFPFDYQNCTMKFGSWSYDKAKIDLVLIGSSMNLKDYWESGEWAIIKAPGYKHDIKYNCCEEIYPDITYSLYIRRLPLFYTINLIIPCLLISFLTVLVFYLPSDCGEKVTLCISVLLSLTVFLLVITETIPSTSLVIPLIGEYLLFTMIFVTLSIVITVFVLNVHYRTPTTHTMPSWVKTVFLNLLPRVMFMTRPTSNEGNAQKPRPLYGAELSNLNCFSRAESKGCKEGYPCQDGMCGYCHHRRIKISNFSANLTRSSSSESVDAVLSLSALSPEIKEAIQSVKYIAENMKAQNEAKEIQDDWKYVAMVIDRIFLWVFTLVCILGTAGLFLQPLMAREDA
T4 sequence (P30926 22-498): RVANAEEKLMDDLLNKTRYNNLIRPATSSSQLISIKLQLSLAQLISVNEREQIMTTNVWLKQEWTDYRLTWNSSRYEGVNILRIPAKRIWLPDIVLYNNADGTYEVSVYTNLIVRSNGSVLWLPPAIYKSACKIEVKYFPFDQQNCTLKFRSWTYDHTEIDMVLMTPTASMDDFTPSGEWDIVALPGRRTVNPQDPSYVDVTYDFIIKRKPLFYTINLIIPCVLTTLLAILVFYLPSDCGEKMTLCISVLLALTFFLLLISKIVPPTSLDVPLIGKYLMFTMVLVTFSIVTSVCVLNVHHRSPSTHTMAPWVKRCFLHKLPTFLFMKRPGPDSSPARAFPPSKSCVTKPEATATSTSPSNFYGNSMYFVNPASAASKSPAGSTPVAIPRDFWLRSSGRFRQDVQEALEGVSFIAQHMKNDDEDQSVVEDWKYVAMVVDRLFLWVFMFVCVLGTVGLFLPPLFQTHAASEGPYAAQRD
Described as above. As to conditions: for agonist character: versus ACh response. The method, then: as §1, §2, §3, §4, §5, §6, §7, §8, §9
as §6, with “developed. Oocytes expressing a nAChR subtype were exposed to a brief test pulse of acetylcholine (1280 micromolar) while the holding current and response was evaluated. Cells displaying robust currents were washed for 90 seconds.” for “developed.”, “were then” for “were”, “nAChR” for “compound”, “intervals. The nAChR agonist test concentrations were 0.1, 0.3, 1, 3, 10, 30, 100, 300 (micromolar).” for “intervals.”

In the next assay the target is T5, human nAChR alpha4beta2 (Homo sapiens, UniProt P17787+P43681).
T5 construct: expressed in transfected cells; host or cells: Xenopus laevis oocytes (cDNA injection)
T5 sequence (P43681 29-627 limits assumed): as the sequence (P43681 29-627 limits assumed) above
T5 sequence (P17787 26-502): as the sequence (P17787 26-502) above
The assay is described as above. The conditions noted are these: for EC50: Example 2; for effect on the subsequent ACh-evoked current: after exposure to the agonist concentration series; for agonist character: versus ACh response. How it is done:
as §1, §2, §3, §4, §5, §6, §7, §8, §9
as §6, with “developed. Oocytes expressing a nAChR subtype were exposed to a brief test pulse of acetylcholine (1280 micromolar) while the holding current and response was evaluated. Cells displaying robust currents were washed for 90 seconds.” for “developed.”, “were then” for “were”, “nAChR” for “compound”, “intervals. The nAChR agonist test concentrations were 0.1, 0.3, 1, 3, 10, 30, 100, 300 (micromolar).” for “intervals.”

Assay [5] has as its target T2, human alpha3beta4 nAChRs. The assay can be described thus: Sustained exposure to 300 μM varenicline tartrate and its recovery (Example 2).
The target of assay [6] is T6, human alpha3alpha5beta4 nAChRs (Homo sapiens, UniProt P30532+P30926+P32297).
T6 construct: expressed in transfected cells; host or cells: Xenopus laevis oocytes (cDNA injection)
T6 sequence (P32297 32-505): as the sequence (P32297 32-505) above
T6 sequence (P30532 23-468): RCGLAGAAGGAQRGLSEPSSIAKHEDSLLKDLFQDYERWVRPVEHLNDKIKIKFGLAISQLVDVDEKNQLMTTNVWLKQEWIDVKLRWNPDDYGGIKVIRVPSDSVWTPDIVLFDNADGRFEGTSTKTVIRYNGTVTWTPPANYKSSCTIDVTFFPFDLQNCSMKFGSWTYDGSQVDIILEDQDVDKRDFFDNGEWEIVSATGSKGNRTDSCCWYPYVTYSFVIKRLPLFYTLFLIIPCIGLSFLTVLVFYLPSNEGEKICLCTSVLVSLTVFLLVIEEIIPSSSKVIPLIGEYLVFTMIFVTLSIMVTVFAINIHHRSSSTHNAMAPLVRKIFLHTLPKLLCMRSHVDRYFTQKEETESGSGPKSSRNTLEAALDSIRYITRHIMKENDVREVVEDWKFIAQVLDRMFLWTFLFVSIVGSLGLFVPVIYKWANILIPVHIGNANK
T6 sequence (P30926 22-498): as the sequence (P30926 22-498) above
Briefly: Antagonistic activity / desensitization, cumulative exposure in the low concentration range (Example 2). The conditions noted are these: nanomolar range, up to 300 nM; dihydrate.

In another assay the target is T7, human alpha7 nAChRs (Homo sapiens, UniProt P36544).
T7 construct: expressed in transfected cells; host or cells: Xenopus laevis oocytes (cDNA injection)
T7 sequence (P36544 23-502): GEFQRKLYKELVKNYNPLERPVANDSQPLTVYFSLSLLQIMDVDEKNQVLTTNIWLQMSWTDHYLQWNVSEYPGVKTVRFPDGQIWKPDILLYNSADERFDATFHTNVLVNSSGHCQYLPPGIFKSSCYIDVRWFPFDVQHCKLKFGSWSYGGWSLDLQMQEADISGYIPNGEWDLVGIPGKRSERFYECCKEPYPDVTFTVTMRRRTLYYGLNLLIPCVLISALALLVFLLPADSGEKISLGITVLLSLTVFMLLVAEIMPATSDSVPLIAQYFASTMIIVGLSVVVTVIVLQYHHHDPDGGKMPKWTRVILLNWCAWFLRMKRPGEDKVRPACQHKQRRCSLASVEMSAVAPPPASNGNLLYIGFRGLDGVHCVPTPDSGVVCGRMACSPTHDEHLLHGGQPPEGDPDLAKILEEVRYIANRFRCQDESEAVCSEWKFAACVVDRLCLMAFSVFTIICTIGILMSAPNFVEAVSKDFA
The description is as above. As to conditions: concentrations up to 300 nM; dihydrate.

Assay [7] concerns the target T1, human alpha4beta2 nAChRs. The assay is described as above. The conditions noted are these: nanomolar range, up to 300 nM; dihydrate.
Another assay deals with T8, human nAChR alpha7 (Homo sapiens, UniProt P36544).
T8 construct: expressed in transfected cells; host or cells: Xenopus laevis oocytes (cDNA injection)
T8 sequence (P36544 23-502): as above
Briefly: Agonist activity, two-electrode voltage clamp in Xenopus oocytes (Examples 2 and 5). As to conditions: for agonist character: versus ACh response. The method, then: as §1, §2, §3, §4, §5, §6, §7, §8, §9
as §6, with “developed. Oocytes expressing a nAChR subtype were exposed to a brief test pulse of acetylcholine (1280 micromolar) while the holding current and response was evaluated. Cells displaying robust currents were washed for 90 seconds.” for “developed.”, “were then” for “were”, “nAChR” for “compound”, “intervals. The nAChR agonist test concentrations were 0.1, 0.3, 1, 3, 10, 30, 100, 300 (micromolar).” for “intervals.”
(In general: Two-electrode voltage clamp holds a large cell at a set potential and records current.)

[8] abbreviates: listed as Compound 1 hemi-galactarate dihydrate, dihydrate.

T3 sequence (P32297 32-505): as the sequence (P32297 32-505) above
T3 sequence (P30532 23-468): as the sequence (P30532 23-468) above
T3 sequence (P30926 22-498): as the sequence (P30926 22-498) above
T2 sequence (P32297 32-505): as the sequence (P32297 32-505) above
T2 sequence (P30926 22-498): as the sequence (P30926 22-498) above

On to “varenicline tartrate [reference compound]”, for which, at human alpha4beta2 nAChRs [1], the “desensitization / inhibition of the response by sustained agonist exposure” value was “profound inhibition; also recorded: major desensitization; also recorded: sustained inhibition; also recorded: major inhibition”. Moreover, the “recovery of the response after wash” value on human alpha4beta2 nAChRs [1] is “could not be removed even after a three-hour wash period; also recorded: no significant recovery; also recorded: absence of recovery”. For the same compound, the recovery from desensitization entry is given as “absence of recovery; also recorded: cannot be recovered even after 36 minutes wash” on human alpha4beta2 nAChRs [2] and “absence of recovery; also recorded: cannot be recovered even after 36 minutes wash” at human alpha3beta4 nAChRs [5] (300 μM, 36 minutes wash). For the same compound, the “inhibition of the ACh-evoked current by sustained exposure” value on human alpha3beta4 nAChRs [3] is recorded as “very modest effect; also recorded: no significant inhibition”. Further, the concentration for a half-maximal effect (EC50) entry (in assay [4]; at human nAChR alpha3beta4; on human nAChR alpha4beta2) was “low micromolar range” throughout. Moreover, the agonist character entry is on record as “partial agonist” in assay [4], “partial agonist” on human nAChR alpha3beta4, “partial agonist” on human nAChR alpha4beta2 and “very poor agonist” at human nAChR alpha4beta2 (listed as Varenicline tartrate). At human nAChR alpha4beta2, the “effect on the subsequent ACh-evoked current” value was “major inhibition”. For the same compound, the “response evoked by 300 μM agonist” value at human alpha3beta4 nAChRs [5] (applied during three minutes) is recorded as “larger current amplitude; also recorded: rather large response”.

For the compound `C(=C\[C@H]1CCNC1)/c1cncnc1` [compound 1 hemi-galactarate dihydrate, (R)-5-((E)-2-pyrrolidin-3-ylvinyl)pyrimidine hemigalactarate dihydrate], the “inhibition of the ACh-evoked current by sustained exposure” value is listed as “marked inhibition; also recorded: inhibits in a concentration-dependent manner” in assay [6], “insensitive; also recorded: no significant inhibition” at human alpha7 nAChRs, “insensitive; also recorded: no significant inhibition” on human alpha3beta4 nAChRs [3] (dihydrate) and “marked inhibition; also recorded: inhibits in a concentration-dependent manner” at human alpha4beta2 nAChRs [7]. The “desensitization / inhibition of the response by sustained agonist exposure” value at human alpha4beta2 nAChRs [1] (dihydrate) is listed as “no long-lasting desensitization; also recorded: only a modest inhibition; also recorded: does not cause a long-lasting inhibition; also recorded: no long-lasting inhibition”. The “recovery of the response after wash” value on human alpha4beta2 nAChRs [1] is on record as “almost full recovery”. In addition, the “response after 18 hours recovery” value on human alpha4beta2 nAChRs [1] (after 1 hour exposure to 1 mM agonist) is recorded as “significant increase of the response”. Moreover, the concentration for a half-maximal effect (EC50) was 1260 ± 500 µM on human nAChR alpha7 (Example 2, value for compound 1 salt only an estimation); 32.1 ± 2.16 µM in assay [4] (read-out: EC50); 42.1 ± 5.36 µM at human nAChR alpha3beta4 (read-out: EC50); 48.8 ± 17.4 µM on human nAChR alpha4beta2 (read-out: EC50). For the same compound, the “percent of the maximal ACh-evoked current” value on human nAChR alpha7 (at 300 μM (300 micromolar) agonist, dihydrate) was 24%. Moreover, the agonist character result is reported as “poor agonist” on human nAChR alpha7 (dihydrate); “more potent agonist than ACh” on human nAChR alpha7 (setting [8]); “almost as a full agonist” in assay [4] (setting [8]); “almost as a full agonist” on human nAChR alpha3beta4 (setting [8]); “more potent agonist than ACh” at human nAChR alpha4beta2 (setting [8]). Also, the “percent of the maximal ACh-evoked currents” value (in [4] (ACh 1280 micromolar); on human nAChR alpha3beta4 (ACh 1280 micromolar)) was “about 94%” throughout. Also, the “evoked currents larger than the maximal ACh responses” value at human nAChR alpha4beta2 is “about 2 fold”. For the same compound, at human nAChR alpha4beta2 (dihydrate), the “effect on the subsequent ACh-evoked current” value was “enhanced”.

What is called EC50 is the concentration needed to bring the measured effect to its halfway point.
